The values below come from patent US20150197433A1, “Compositions and methods for treating toilets” (Integrated Chemical Technologies, Inc., priority 2014, published 2015).

The experiment deals with urease enzyme. The experiment can be described thus: Testing Glycine Hydroxamate: ammonia odor of treated water loaded with urine and fecal matter. As to conditions: for odor of ammonia: 0.04 grams in 200 ml water with bronopol, citric acid, sodium bicarbonate, sulfamic acid, fragrance, approximately 80° F., after 7 days. As for the experimental part: To each of two flask, 200 ml of distilled water was combined with 0.04 grams of bronopol, 0.04 grams of either acetylhydroxamic acid or 0.04 grams of glycine hydroxamate, 0.10 grams of citric acid, 0.023 grams sodium bicarbonate, 0.027 grams of sulfamic acid, and 0.04 grams of mulberry fragrance. To each sample, 9 ml of urine and 1.5 grams of fecal matter was added and swirled.

Take `CC(=O)NO` [acetylhydroxamic acid, reference compound]: the odor of ammonia result is reported as “no detectable odor of ammonia”. With `NCC(=O)NO` [glycine hydroxamate], the odor of ammonia result was “no detectable odor of ammonia”. Further, for the setting “under test conditions”, the “performance compared with acetylhydroxamic acid” value was “comparable to acetylhydroxamic acid”.
